What was measured:
[1] = Body weight of H-460 tumor-bearing nude mice given chemotherapeutic agent with or without Compound A; type: in vivo, female Harlan nude mice
Experimental: To examine the effects of compounds and methods of the present invention on weight loss associated with chemotherapeutic agents, the following study was performed. This experiment was carried out essentially as described above in Example 2. […] Cages, food, and bedding were autoclaved. Animal diets were obtained from Harlan Teklad (Madison, Wis.).
Body weights were monitored over time for individual animals. Changes in individual animal body weights over time are shown in FIGS. 3-8, and are presented as percent of initial body weight (treatment day 1), which was set at 100%.

[2] = system: animal model of chemotherapy-induced anemia; type: in vivo, Sprague Dawley male rats
Experimental: Fifteen Sprague Dawley male rats (280-300 g) were obtained from Charles River Laboratories. On day 0, rats were treated by intraperitoneal (i.p.) injection with a single dose of saline (control; n=3) at 8 ml/kg, or Cisplatin (CP; Bedford Laboratories, Bedford Ohio) at either 7 mg/kg (7 ml/kg; n=6) or 10 mg/kg (10 ml/kg; n=6). Blood samples (0.2 ml) were collected on days 5, 9, and 16 as follows. Animals were anesthetized with isoflurane and 0.2 ml of blood was collected from the tail vein into a MICROTAINER EDTA-2K tube (Becton-Dickinson). Blood samples were processed for hematocrit as described above to determine the degree of anemia produced in each animal.
Beginning on day 19 of the study, one half of each cisplatin-treated group (n=3×2) and all of the control group were treated by oral gavage once per day for 5 consecutive days with a 2 ml/kg volume of 0.5% CMC (Sigma-Aldrich). […] Blood samples (0.5 ml) were collected as described above immediately prior to treatment and 4 days after treatment initiation. Blood samples were analyzed for CBC and reticulocyte counts as described above. On day 9 after initiation of oral treatment, a blood sample (0.1 ml) was collected and processed for hematocrit as described above.

[3] = system: female Harlan nude mice implanted with H460 tumor cells; assay: H-460 tumor-bearing nude mice given chemotherapeutic agent with or without Compound A: premature morbidity and hematocrit
Experimental: To examine the effect of methods and compounds of the present invention on treatment of chemotherapy-induced anemia, the following study was performed. The human H-460 lung cancer cell line used was obtained from the National Cancer Institute. (Brower et al., (1986) Cancer Res 46:798-806.) Animals were maintained in a HEPA-filtered environment during the experimental period. Cages, food, and bedding were autoclaved. Animal diets were obtained from Harlan Teklad (Madison, Wis.). Hydrochloric acid, 0.15% (v/v), was added to the drinking water.
Compounds of the invention were pre-formulated in an aqueous vehicle consisting of 0.1% (w/w) Polysorbate 80 (JT Baker) and 0.5% (w/w) high viscosity carboxymethyl cellulose sodium (Spectrum) to achieve a final 10 ml/kg dosing (oral gavage).
A stock tumor was established by subcutaneously injecting a cell suspension into nude mice. The resulting tumor was maintained in nude mice subcutaneously as tumor stock prior to use. Tumor implantation was performed when the stock tumors were in log phase of growth. Before implantation, tumor tissue was harvested from stock mice and placed in RPMI-1640 medium. Necrotic tissues were dissected away and viable tissues were cut into 1-2 mm^2 pieces. In these experiments, 1×10^7H460 tumor cells were implanted subcutaneously to the flanks of female Harlan nude mice.
Treatment (administration of compounds of the present invention) was initiated when the inoculated tumors reached approximately 100 mm^3, and continued for four weeks.
These studies followed the guidelines of the Tumor Growth Delay (TGD) type, using a protocol that required individual animals to be humanely euthanized after reaching a set endpoint of tumor volume greater than or equal to 2 cc. At this endpoint, blood was also sampled and hematocrit (HCT) was determined.
These two chemotherapeutic are representative of two broad classes of conventional anti-tumor therapeutics: microtubule poisons (Paclitaxcel); and DNA-directed agents, including the sub-classification of DNA alkylating agents (Carboplatin). […]

CC(=O)O[C@H]1C(=O)[C@@]2(C)[C@H]([C@H](OC(=O)c3ccccc3)[C@]3(O)C[C@H](OC(=O)[C@H](O)[C@@H](NC(=O)c4ccccc4)c4ccccc4)C(C)=C1C3(C)C)[C@]1(OC(C)=O)CO[C@@H]1C[C@@H]2O [Paclitaxel]
animals that ended the study at a body weight below that at the start ([1]; mouse, in vivo): 2 of 10
body weight pattern compared to non-treated vehicle control animals ([1]; mouse, in vivo): pattern of weight loss

O=C(O)CNC(=O)c1nc(Cl)c2ccccc2c1O [Compound A, N—((1-chloro-4-hydroxy-isoquinoline-3-carbonyl)-amino)-acetic acid]
body weight change at end of study ([1]; mouse, in vivo): overall net weight gain
body weights during the time course of the study ([1]; mouse, in vivo, 60 mg/kg): increased gradually
hematocrit in Cisplatin-treated animals ([2]; 4 days after initiating treatment with Compound A, oral gavage once per day for 5 days (FIG. 1A)): increased hematocrit
percent circulating reticulocytes ([2]; Cisplatin-treated animals, compared to those without Compound A (FIG. 1B)): increased
hematocrit levels versus non-treated counterparts ([2]; Cisplatin-treated rats, day 9 post-treatment (FIG. 1A)): significantly higher

N.N.O=C([O-])C1(C(=O)[O-])CCC1.[Pt+2] [Carboplatin]
hematocrit over time ([3]; Carboplatin alone (closed circles in FIG. 2)): significant decrease
# animals morbid prematurely ([3]; Cmpd A 60 mg/kg p.o., Carboplatin 120 mg/kg i.p. Q7d): 6/10
# animals reaching study endpoint ([3]; Cmpd A 60 mg/kg p.o., Carboplatin 120 mg/kg i.p. Q7d, endpoint tumor volume >= 2 cc): 4/10
body weight pattern compared to non-treated vehicle control animals ([1]; chemotherapeutic agent alone (FIG. 5, FIG. 7)): pattern of weight loss
animals with more than a 10% weight gain at any time during the study ([1]; number of animals of 10): 3 of 10
animals that ended the study at a body weight below that at the start ([1]; number of animals of 10 per group): 7 of 10

Reference: US7713986B2, “Compounds and methods for treatment of chemotherapy-induced anemia” (priority 2006, dated 2010)
